US10849988B2, “Hydrogel for engineered immune response to D-chirality peptides” (THE REGENTS OF THE UNIVERSITY OF CALIFORNIA, priority 2016, dated 2020)
Where no end group is shown, it is not given here. [ ]: non-standard residue; d: D form.

Tested on: macrophages
Assay: In vitro macrophage assay, mRNA production of key markers of inflammation
Type: cell-based
Excerpt: FIGS. 6A-6I show data from comparative studies on D and L peptides. […] Note: in 1:1 L/D samples the L gels are unlabeled. FIG. 6B) Quantification of CD11b positive cells (immune cells) within and around gel within a healed dermal wound bed at Day 21 (ex. FIG. 6A). FIG. 6C) Comparing cell recruitment into subcutaneously-injected gels as a function of adaptive immune competence (Balb/c) versus adaptive immune incompetence (Rag2gc−/−). FIG. 6D) Fraction of immune cell to total cell recruitment within a subcutaneously injected gels as a function of adaptive immune competence (Balb/c) versus adaptive immune incompetence (Rag2gc−/−). FIGS. 6E-I) mRNA production of key markers of inflammation within an in vitro macrophage assay upon exposure to DI water, Lipid Polysaccharide (LPS) 500 ug/mL, D-MMP crosslinker 500 ug/mL, and LPS+D-MMP.

## Gly Cys Arg Asp Gly Pro d-Gln Gly d-Ile d-Trp Gly Gln Asp Arg Cys Gly (GCRDGP[dQ]G[dI][dW]GQDRCG; cysteine pairing not given here) [D-MMP]
D-MMP crosslinker 500 ug/mL alone
  effect on macrophages (mRNA of key markers of inflammation) relative to the positive control (LPS): no direct effect
LPS+D-MMP, each 500 ug/mL
  effect on macrophages (mRNA of key markers of inflammation) when combined with the positive control (LPS): some additive affects
